Structures can show the parent of a compound that is named as a salt.

The experiment deals with IRAK-4 (Homo sapiens (Human), UniProt Q9NWZ3). Description: In vitro IRAK-4 kinase assay. Format: biochemical. The settings on record: purified recombinant IRAK-4, 50 uM ATP, 33P peptide phosphorylation. The method, boiled down: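 Recombinant IRAK-4 or IRAK-1 incubated with 250 uM synthetic peptide in MOPS pH7.2 kinase buffer with 50 uM ATP, 20 mM MgCl2 and γ-33P ATP for the indicated time. Phosphorylated peptide captured on phosphocellulose, washed with phosphoric acid, quantified by scintillation counting.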
Chain of IRAK-4 (Q9NWZ3 whole entry, species assumed): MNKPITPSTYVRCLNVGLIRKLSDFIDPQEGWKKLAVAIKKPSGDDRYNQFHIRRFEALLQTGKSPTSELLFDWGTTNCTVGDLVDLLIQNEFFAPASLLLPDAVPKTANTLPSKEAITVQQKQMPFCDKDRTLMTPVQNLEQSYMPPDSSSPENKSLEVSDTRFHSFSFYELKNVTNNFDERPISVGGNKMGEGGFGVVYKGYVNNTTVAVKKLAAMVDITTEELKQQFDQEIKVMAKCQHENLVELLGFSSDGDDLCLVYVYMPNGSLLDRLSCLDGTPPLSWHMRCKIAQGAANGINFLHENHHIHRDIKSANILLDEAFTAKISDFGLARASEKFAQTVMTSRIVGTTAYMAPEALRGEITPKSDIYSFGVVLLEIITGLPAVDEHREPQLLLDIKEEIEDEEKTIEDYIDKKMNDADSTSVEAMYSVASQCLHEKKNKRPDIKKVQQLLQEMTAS

Take `CN(C)c1ccc(Cl)cc1NC(=O)c1cnn2cccnc12` [Example 108, Pyrazolo[1,5-alpha]pyrimidine-3-carboxylic acid (5-chloro-2-dimethylamino-phenyl)-amide]: the IC50 turned out to be 739 nM. Under `O=C(Nc1cc(Cl)ccc1OC1CCC(O)CC1)c1cnn2cc(Br)cnc12` (stereo not drawn) [Example 61, 6-Bromo-pyrazolo[1,5-alpha]pyrimidine-3-carboxylic acid [5-chloro-2-(4-hydroxy-cyclohexyloxy)-phenyl]-amide] stands 137 nM; under `O=C(Nc1cc(Cl)ccc1N1CCCCC1)c1cnn2cccnc12` [Example 79, Pyrazolo[1,5-alpha]pyrimidine-3-carboxylic acid (5-chloro-2-piperidin-1-yl-phenyl)-amide], 314 nM. As to `O=C(Nc1cc(Cl)ccc1OC1CCC(O)CC1)c1cnn2cc(CCO)cnc12` (stereo not drawn) [Example 147, 6-(2-Hydroxy-ethyl)-pyrazolo[1,5-alpha]pyrimidine-3-carboxylic acid [5-chloro-2-(4-hydroxy-cyclohexyloxy)-phenyl]-amide], the IC50 came to 3040 nM.

As to `NCC1CCN(c2c(N)cccc2NC(=O)c2cnn3cccnc23)CC1` [Example 59, Pyrazolo[1,5-alpha]pyrimidine-3-carboxylic acid [3-amino-2-(4-aminomethyl-piperidin-1-yl)-phenyl]-amide], the IC50 turned out to be 133 nM. As to `O=C(Nc1cc(Cl)ccc1N1CCC(CO)CC1)c1cnn2cccnc12` [Example 42, Pyrazolo[1,5-alpha]pyrimidine-3-carboxylic acid [5-chloro-2-(4-hydroxymethyl-piperidin-1-yl)-phenyl]-amide], the half-inhibitory concentration (IC50) stood at 72 nM. Under `CC(N)C1CCN(c2ccc(Cl)cc2NC(=O)c2cnn3cccnc23)C1` (stereo not drawn) [Example 148, Pyrazolo[1,5-alpha]pyrimidine-3-carboxylic acid {2-[3-(1-amino-ethyl)-pyrrolidin-1-yl]-5-chloro-phenyl}-amide hydrochloride] stands 3080 nM; under `O=C(Nc1cc(Cl)ccc1C1CCCCC1)c1cnn2cccnc12` [Example 112, Pyrazolo[1,5-alpha]pyrimidine-3-carboxylic acid (5-chloro-2-cyclohexyl-phenyl)-amide], 799 nM; under `CSc1ccc(Cl)cc1NC(=O)c1cnn2cccnc12` [Example 111, Pyrazolo[1,5-alpha]pyrimidine-3-carboxylic acid (5-chloro-2-methylsulfanyl-phenyl)-amide], 798 nM. Under `COc1cc2ncccc2cc1NC(=O)c1cnn2cccnc12` [Example 33, Pyrazolo[1,{tildeover (5)}alpha] pyrimidine-3-carboxylic acid (7-methoxy-quinolin-6-yl)-amide] stands 43 nM; under `COCCCOc1ccc(Cl)cc1NC(=O)c1cnn2cccnc12` [Example 138, Pyrazolo[1,5-alpha]pyrimidine-3-carboxylic acid [5-chloro-2-(3-methoxy-propoxy)-phenyl]-amide], 2420 nM. Under `COc1cc(C(=O)Nc2ccccc2)ccc1NC(=O)c1cnn2cccnc12` [Example 89, Pyrazolo[1,5-alpha]pyrimidine-3-carboxylic acid (2-methoxy-4-phenylcarbamoyl-phenyl)-amide] stands 455 nM.

On to `COc1ccc(Cl)cc1NC(=O)c1csc2cccnc12` [Example 150, Thieno[3,2-beta]pyridine-3-carboxylic acid (5-chloro-2-methoxy-phenyl)-amide], for which the half-inhibitory concentration (IC50) was determined as 3460 nM.

`COc1cc2ncccc2cc1NC(=O)c1csc2cnc(NCCCN)nc12` [Example 50, 2-(3-Amino-propylamino)-thieno[3,2-d]pyrimidine-7-carboxylic acid (7-methoxy-quinolin-6-yl)-amide]: the IC50 worked out at 101 nM. Under `COc1c(C)cc(C)cc1NC(=O)c1cnn2cccnc12` [Example 168, Pyrazolo[1,5-alpha]pyrimidine-3-carboxylic acid (2-methoxy-3,5-dimethyl-phenyl)-amide] stands 6520 nM; under `O=C(Nc1ccc2ncccc2c1)c1csc2cnc(NCCO)nc12` [Example 75, 2-(2-Hydroxy-ethylamino)-thieno[3,2-d]pyrimidine-7-carboxylic acid quinolin-6-ylamide], 300 nM. To `COc1cnc2c(C(=O)Nc3cc(Cl)ccc3N3CCC(CO)CC3)cnn2c1` [Example 29] belongs 33 nM; to `O=C(Nc1cc(Cl)ccc1OCCO)c1cnn2cccnc12` [Example 179, Pyrazolo[1,5-alpha]pyrimidine-3-carboxylic acid [5-chloro-2-(2-hydroxy-ethoxy)-phenyl]-amide], 5000 nM. Under `COc1ccc(Cl)cc1NC(=O)c1csc2cnc(N(C)CCO)nc12` [Example 157, 2-[(2-Hydroxy-ethyl)-methyl-amino]-thieno[3,2-d]pyrimidine-7-carboxylic acid (5-chloro-2-methoxy-phenyl)-amide] stands 4130 nM; under `O=C(Nc1cc(Cl)ccc1Oc1ccccc1)c1cnn2cccnc12` [Example 161, Pyrazolo[1,5-alpha]pyrimidine-3-carboxylic acid (5-chloro-2-phenoxy-phenyl)-amide], 4650 nM; under `COc1cc2ncccc2cc1NC(=O)c1csc2cnc(N(CCO)C(C)C)nc12` [Example 57, 2-[(2-Hydroxy-ethyl)-isopropyl-amino]-thieno[3,2-d]pyrimidine-7-carboxylic acid (7-methoxy-quinolin-6-yl)-amide], 127 nM. Turning to `COc1cc2ccc(CO)cc2cc1NC(=O)c1cnn2cccnc12` [Example 82, Pyrazolo[1,5-alpha]pyrimidine-3-carboxylic acid (7-hydroxymethyl-3-methoxy-naphthalen-2-yl)-amide], the IC50 was 358 nM. For `COc1ccc(Cl)cc1NC(=O)c1csc2cnc(NCCNC(C)=O)nc12` [Example 175, 2-(2-Acetylamino-ethylamino)-thieno[3,2-d]pyrimidine-7-carboxylic acid-(5-chloro-2-methoxy-phenyl)-amide], the IC50 amounted to 8090 nM. On to `CN(CCCO)c1ccc(Cl)cc1NC(=O)c1cnn2cccnc12` [Example 149, Pyrazolo[1,5-alpha]pyrimidine-3-carboxylic acid {5-chloro-2-[(3-hydroxy-propyl)-methyl-amino]-phenyl}-amide], for which the IC50 was found to be 3400 nM. To `COc1ccc(C)cc1NC(=O)c1cnn2cccnc12` [Example 153, Pyrazolo[1,5-alpha]pyrimidine-3-carboxylic acid (2-methoxy-5-methyl-phenyl)-amide] belongs 3770 nM; to `O=C(Nc1cc(Cl)ccc1OCCC(O)CO)c1cnn2cccnc12` (stereo not drawn) [Example 96, Pyrazolo[1,5-alpha]pyrimidine-3-carboxylic acid [5-chloro-2-(3,4-dihydroxy-butoxy)-phenyl]-amide], 506 nM; to `O=C(Nc1cc(Cl)ccc1OC1CCCC(O)C1)c1cnn2cccnc12` (stereo not drawn) [Example 103, Pyrazolo[1,5-alpha]pyrimidine-3-carboxylic acid [5-chloro-2-(3-hydroxy-cyclohexyloxy)-phenyl]-amide], 605 nM. To `O=C(Nc1cccc(NCCCO)c1N1CCCCC1)c1cnn2cccnc12` [Example 144, Pyrazolo[1,5-alpha]pyrimidine-3-carboxylic acid [3-(3-hydroxy-propylamino)-2-piperidin-1-yl-phenyl]-amide] belongs 2850 nM; to `O=C(Nc1cc(Cl)ccc1OC1CCC(O)C1)c1csc2cncnc12` (centres unmarked) [Example 120, Thieno[3,2-d]pyrimidine-7-carboxylic acid [5-chloro-2-(3-hydroxy-cyclopentyloxy)-phenyl]-amide], 1520 nM; to `O=C(Nc1cc(Cl)ccc1Oc1ccc(O)cc1)c1cnn2cccnc12` [Example 130, Pyrazolo[1,5-alpha]pyrimidine-3-carboxylic acid [5-chloro-2-(4-hydroxy-phenoxy)-phenyl]-amide], 2220 nM.

As to `O=C(Nc1cc(Cl)ccc1OCCCO)c1cnn2cccnc12` [Example 84, Pyrazolo[1,5-alpha]pyrimidine-3-carboxylic acid [5-chloro-2-(3-hydroxy-propoxy)-phenyl]-amide], the IC50 came out at 430 nM. To “2-(cis-2-Amino-cyclohexylamino)-thieno[3,2-d]pyrimidine-7-carboxylic acid quinolin-8-ylamide [Example 22]” belongs 28 nM; to `O=C(Nc1cc(Cl)ccc1N1CCOCC1)c1cnn2cccnc12` [Example 99, Pyrazolo[1,5-alpha]pyrimidine-3-carboxylic acid (5-chloro-2-morpholin-4-yl-phenyl)-amide], 523 nM. To `CNCC1CCN(c2ccc(Cl)cc2NC(=O)c2csc3cncnc23)CC1` [Example 8, Thieno[3,2-d]pyrimidine-7-carboxylic acid [5-chloro-2-(4-methylaminomethyl-piperidin-1-yl)-phenyl]-amide] belongs 8 nM; to `COc1cc(C(=O)N(C)C)ccc1NC(=O)c1cnn2cccnc12` [Example 172, Pyrazolo[1,5-alpha]pyrimidine-3-carboxylic acid (4-dimethylcarbamoyl-2-methoxy-phenyl)-amide], 7650 nM; to `O=C(Nc1cc2cccnc2cc1OC1CCNC1)c1csc2cncnc12` (centres unmarked) [Example 88, Thieno[3,2-d]pyrimidine-7-carboxylic acid [7-(pyrrolidin-3-yloxy)-quinolin-6-yl]-amide hydrochloride], 455 nM.

Turning to `NCc1ccc(-c2ccc(Cl)cc2NC(=O)c2cnn3cccnc23)cc1` [Example 46, Pyrazolo[1,{tildeover (5)}alpha] pyrimidine-3-carboxylic acid (4′-aminomethyl-4-chloro-biphenyl-2-yl)-amide], the IC50 is 81 nM. Under `COc1cc2cc(C)[nH]c2cc1NC(=O)c1cnn2cccnc12` [Example 72, Pyrazolo[1,5-alpha]pyrimidine-3-carboxylic acid (5-methoxy-2-methyl-1H-indol-6-yl)-amide] stands 255 nM.

(Values after patent US9255110B2 (Hoffmann-La Roche Inc., priority 2010, dated 2016).)
